Laboratory results from patent US20250026778A1 (TIUMBIO CO., LTD., priority 2021, published 2025).
Like-named read-outs stand apart in the source and are kept apart here.

Target: T1, his-galectin-3 (Homo sapiens, UniProt P17931)
T1 construct: purchased Abcam
Assay: TR-FRET assay (in vitro galectin-3 binding inhibitory activity test)
Conditions: compound at 20 μM, 60 nM his-galectin-3, 15 nM biotin-ASF
Description: TR-FRET Assay (In Vitro Galectin-3 Binding Inhibitory Activity Test)
TR-FRET assay was performed in ½ Area Plate-96 (PerkinElmer). Final concentrations of components in the assay were 60 nM his-galectin-3 (Abcam), 15 nM biotin-ASF (Axxora), 2 nM Mab anti-6×His Tb (Cisbio) and 20 nM SA-d2 (Cisbio). The reaction was performed in a buffer containing 25 mM HEPES, 100 mM NaCl, 0.005% Tween 20 and 0.05% BSA. 20 μL his-galectin-3 and 1 μL compound were mixed first, and then 20 μL biotin-ASF, 5 μL anti-His Tb and 5 μL SA-d2 were added in order. After incubation for at least 3.5 hours at RT, TR-FRET signals were measured at 615/665 nm […] wavelengths using a VICTOR Nivo (PerkinElmer). The positive control used DMSO instead of the compound, and the negative control excluded ASF-biotin. N-acetyl-D-lactosamine (LacNAc), an endogenous ligand unit of galectin-3, was evaluated together as a control substance to compare galectin-3 binding inhibitory activity.

[1] = Table 1, read-out: % Inhibitory activity (at 20 μM)
[2] = read-out: % Inhibitory activity (at 20 μM), Table 1
[3] = Table 2, read-out: % Inhibitory activity (at 20 μM)

T1 sequence (P17931 whole entry): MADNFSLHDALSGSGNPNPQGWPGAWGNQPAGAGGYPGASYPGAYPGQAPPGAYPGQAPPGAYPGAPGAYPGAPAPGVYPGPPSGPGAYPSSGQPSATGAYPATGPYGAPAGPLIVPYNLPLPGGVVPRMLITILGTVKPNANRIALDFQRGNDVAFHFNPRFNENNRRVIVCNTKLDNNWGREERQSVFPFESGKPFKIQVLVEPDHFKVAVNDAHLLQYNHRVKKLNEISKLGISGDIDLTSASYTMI

inhibition at 20 µM [1] [%] | inhibition at 20 µM [3] [%] | Compound | also measured
– | > 75 | Cc1cc(C(=O)N[C@@H]2CCO[C@]23O[C@H](CO)[C@H](O)[C@H](n2cc(-c4cc(F)c(F)c(F)c4)nn2)[C@H]3O)c2cc(Br)ccc2n1 [Compound A231, 6-bromo-N-((4R,5S,7R,8R,9S,10R)-8,10-dihydroxy-7-(hydroxymethyl)-9-(4-(3,4,5-trifluorophenyl)-1H-1,2,3-triazol-1-yl)-1,6-dioxaspiro[4.5]decan-4-yl)-2-methylquinoline-4-carboxamide] | –
25 to 50 | – | O=C(O[C@@H]1[C@@H](n2cc(-c3cc(F)c(F)c(F)c3)nn2)[C@@H](O)[C@@H](CO)O[C@@]12CCCO2)c1cccc(F)c1F [Compound A71, (5S,7R,8R,9S,10R)-8-hydroxy-7-(hydroxymethyl)-9-(4-(3,4,5-trifluorophenyl)-1H-1,2,3-triazol-1-yl)-1,6-dioxaspiro[4.5]decan-10-yl 2,3-difluorobenzoate] | –
25 to 50 | – | O=C(O[C@@H]1[C@@H](n2cc(-c3cc(F)c(F)c(F)c3)nn2)[C@@H](O)[C@@H](CO)O[C@@]12CCCO2)c1ncccc1F [Compound A77, (5S,7R,8R,9S,10R)-8-hydroxy-7-(hydroxymethyl)-9-(4-(3,4,5-trifluorophenyl)-1H-1,2,3-triazol-1-yl)-1,6-dioxaspiro[4.5]decan-10-yl 3-fluoropicolinate] | –
– | 50 to 75 | O=C(N[C@@H]1CCO[C@]12O[C@H](CO)[C@H](O)[C@H](n1cc(-c3cc(F)c(F)c(F)c3)nn1)[C@H]2O)c1ccc2ccccc2c1Br [Compound A193, 1-bromo-N-((4R,5S,7R,8R,9S,10R)-8,10-dihydroxy-7-(hydroxymethyl)-9-(4-(3,4,5-trifluorophenyl)-1H-1,2,3-triazol-1-yl)-1,6-dioxaspiro[4.5]decan-4-yl)-2-naphthamide] | –
25 to 50 | – | COc1cccc(C(=O)O[C@@H]2[C@@H](n3cc(-c4cc(F)c(F)c(F)c4)nn3)[C@@H](O)[C@@H](CO)O[C@@]23CCCCO3)c1 [Compound A53, (2R,3R,4S,5R,6S)-3-hydroxy-2-(hydroxymethyl)-4-(4-(3,4,5-trifluorophenyl)-1H-1,2,3-triazol-1-yl)-1,7-dioxaspiro[5.5]undecan-5-yl 3-methoxybenzoate] | –
< 25 | – | CN(Cc1cccc(Cl)c1)[C@@H]1CCO[C@]12O[C@H](CO)[C@H](O)[C@H](n1cc(-c3cc(F)c(F)c(F)c3)nn1)[C@H]2O [Compound A103, (4R,5S,7R,8R,9S,10R)-4-((3-chlorobenzyl)(methyl)amino)-7-(hydroxymethyl)-9-(4-(3,4,5-trifluorophenyl)-1H-1,2,3-triazol-1-yl)-1,6-dioxaspiro[4.5]decane-8,10-diol] | –

The next lines start with the compound.

Compound | inhibition at 20 µM [1] [%] | inhibition at 20 µM [3] [%] | also measured
COc1cccc(CN[C@@H]2CCO[C@]23O[C@H](CO)[C@H](O)[C@H](n2cc(-c4cc(F)c(F)c(F)c4)nn2)[C@H]3O)c1O [Compound A132, (4R,5S,7R,8R,9S,10R)-4-((2,3-hydroxy-3-methoxybenzyl)amino)-7-(hydroxymethyl)-9-(4-(3,4,5-trifluorophenyl)-1H-1,2,3-triazol-1-yl)-1,6-dioxaspiro[4.5]decane-8,10-diol] | 25 to 50 | – | –
OC[C@H]1O[C@@]2(CCCO2)[C@H](O)[C@@H](n2cc(-c3cc(F)c(F)c(F)c3)nn2)[C@H]1O [Compound A12, (5S,7R,8R,9S,10R)-7-(hydroxymethyl)-9-(4-(3,4,5-trifluorophenyl)-1H-1,2,3-triazol-1-yl)-1,6-dioxaspiro[4.5]decane-8,10-diol] | 25 to 50 | – | –
O=c1oc2ccc(F)c(F)c2cc1CO[C@H]1[C@@H](O)[C@@H](CO)O[C@@]2(CCCO2)[C@@H]1O [Compound A09, 3-((((5S,7R,8S,9S,10R)-8,10-dihydroxy-7-(hydroxymethyl)-1,6-dioxaspiro[4.5]decan-9-yl)oxy)methyl)-5,6-difluoro-2H-chromen-2-one] | < 25 | – | –
O=C1CCCC2(N1)O[C@H](CO)[C@H](O)[C@H](n1cc(-c3cc(F)c(F)c(F)c3)nn1)[C@H]2O (stereo partly drawn) [Compound A88, (2R,3R,4S,5R)-3,5-dihydroxy-2-(hydroxymethyl)-4-(4-(3,4,5-trifluorophenyl)-1H-1,2,3-triazol-1-yl)-1-oxa-7-azaspiro[5.5]undecan-8-one] | – | – | inhibition at 20 µM [2]: < 25%
O=C(N[C@@H]1CCO[C@]12O[C@H](CO)[C@H](O)[C@H](n1cc(-c3cc(F)c(F)c(F)c3)nn1)[C@H]2O)c1ccc2sccc2c1 [Compound A196, N-((4R,5S,7R,8R,9S,10R)-8,10-dihydroxy-7-(hydroxymethyl)-9-(4-(3,4,5-trifluorophenyl)-1H-1,2,3-triazol-1-yl)-1,6-dioxaspiro[4.5]decan-4-yl)benzo[b]thiophene-5-carboxamide] | – | 50 to 75 | –
O=C(Cc1cccc(Oc2ccccc2)c1)N[C@@H]1CCO[C@]12O[C@H](CO)[C@H](O)[C@H](n1cc(-c3cc(F)c(F)c(F)c3)nn1)[C@H]2O [Compound A183, N-((4R,5S,7R,8R,9S,10R)-8,10-dihydroxy-7-(hydroxymethyl)-9-(4-(3,4,5-trifluorophenyl)-1H-1,2,3-triazol-1-yl)-1,6-dioxaspiro[4.5]decan-4-yl)-2-(3-phenoxyphenyl)acetamide] | – | < 25 | –
OC[C@H]1O[C@]2(OCC[C@H]2NCc2ccccc2F)[C@H](O)[C@@H](n2cc(-c3cc(F)c(F)c(F)c3)nn2)[C@H]1O [Compound A87, (4R,5S,7R,8R,9S,10R)-4-((2-fluorobenzyl)amino)-7-(hydroxymethyl)-9-(4-(3,4,5-trifluorophenyl)-1H-1,2,3-triazol-1-yl)-1,6-dioxaspiro[4.5]decane-8,10-diol] | 25 to 50 | – | –
O=C(c1cc2ccccc2s1)N1CCC[C@]2(C1)O[C@H](CO)[C@H](O)[C@H](n1cc(-c3cc(F)c(F)c(F)c3)nn1)[C@H]2O [Compound A187, benzo[b]thiophen-2-yl((2R,3R,4S,5R,6R)-3,5-dihydroxy-2-(hydroxymethyl)-4-(4-(3,4,5-trifluorophenyl)-1H-1,2,3-triazol-1-yl)-1-oxa-8-azaspiro[5.5]undecan-8-yl)methanone] | – | < 25 | –
O=C(N[C@@H]1CCO[C@]12O[C@H](CO)[C@H](O)[C@H](n1cc(-c3cc(F)c(F)c(F)c3)nn1)[C@H]2O)c1cccc2occc12 [Compound A230, N-((4R,5S,7R,8R,9S,10R)-8,10-dihydroxy-7-(hydroxymethyl)-9-(4-(3,4,5-trifluorophenyl)-1H-1,2,3-triazol-1-yl)-1,6-dioxaspiro[4.5]decan-4-yl)benzofuran-4-carboxamide] | – | 50 to 75 | inhibition at 20 µM (Table 3, found values, read-out: % Inhibitory activity (at 20 μM)): 66.5%
OC[C@H]1O[C@@]2(CCCN(Cc3cccnc3)C2)[C@H](O)[C@@H](n2cc(-c3cc(F)c(F)c(F)c3)nn2)[C@H]1O [Compound A142, (2R,3R,4S,5R,6R)-2-(hydroxymethyl)-8-(pyridin-3-ylmethyl)-4-(4-(3,4,5-trifluorophenyl)-1H-1,2,3-triazol-1-yl)-1-oxa-8-azaspiro[5.5]undecane-3,5-diol] | – | – | inhibition at 20 µM [2]: < 25%
O=C(O)CO[C@@H]1[C@@H](n2cc(-c3cc(F)c(F)c(F)c3)nn2)[C@@H](O)[C@@H](CO)O[C@@]12CCCCO2 [Compound A54, 2-(((2R,3R,4S,5R,6S)-3-hydroxy-2-(hydroxymethyl)-4-(4-(3,4,5-trifluorophenyl)-1H-1,2,3-triazol-1-yl)-1,7-dioxaspiro[5.5]undecan-5-yl)oxy)acetic acid] | – | – | inhibition at 20 µM [2]: 25 to 50%
